Biological target: intestinal α-glucosidase
Assay: Assay for intestinal α-glucosidase inhibition (p-nitrophenyl α-D-glucopyranoside substrate, read at 405 nm)
Type: biochemical, Rat
Details: for Intestinal α-glucosidase inhibitory activity IC50 VALUES: crude enzyme from rat intestinal acetone powder, substrate p-nitrophenyl α-D-glucopyranoside, phosphate buffer pH6.8, triplicate
Procedure: Example 2: Assay for intestinal α-glucosidase inhibition:- Rat intestinal acetone powder (sigma chemicals, USA) in normal saline in ration of 100:1 (w/v) was sonicated properly. Supernatant obtained after centrifugation at 3000rpm x 30 min at 25°C was treated as crude source of mammalian intestinal α-glucosidase 10 µL of test samples prepared from either extracts or the molecules (5mg/ml in DMSO) were incubated in 100µL of 100 mM phosphate buffer (pH6.8) with 50 µL of crude enzyme for 5 minutes. Thereafter 50 µL of substrate (5mM, p-nitrophenyl α-D-glucopyranoside prepared in the buffer)was added. After 5 minutes incubation, released p-nitro phenol was read at 405nm spectrophotometrically. For control and blank readings at the place of test samples 10 µL of DMSO and at the place of substrate 50 µL of buffer was added: In order to compensate interference from colored compounds there individual blanks were prepared and spectophotpmetric reading were evaluated accordingly the percent inhibition was calculated as follows:- […] [formula] and 50% inhibitory concentration(IC50)for test samples were calculated by applying suitable regression analysis from the data obtain from serial dilution of the test samples concentrations. Each test sample and other control samples were run in triplicate.

Row | Structure (SMILES) | in vitro α-glucosidase inhibitory activity IC50 [µg/mL] | Intestinal α-glucosidase inhibitory activity IC50 VALUES [µg/mL]
1 | O=c1cc(-c2ccccc2)oc2cc(O)cc(O)c12 [Chrysin, 5,7-dihydroxy-2-phenyl-chromen-4-one] | 57.59 | 57.59
2 | COc1cc(O)c2c(=O)cc(-c3ccccc3)oc2c1 [Methoxy chrysin, 5-hydroxy-7-methoxy-2-phenyl-chromen-4-one] |  | 95.39
3 | O=c1cc(-c2ccccc2)oc2cc(O)c(O)c(O)c12 [Baicalein, 5,6,7-trihydroxy-2-phenyl-chromen-4-one] | 38.71 | 38.71

The remaining lines, values ahead:

Row | in vitro α-glucosidase inhibitory activity IC50 [µg/mL] | Intestinal α-glucosidase inhibitory activity IC50 VALUES [µg/mL] | Structure (SMILES)
4 | 25.90 | 25.90 | COc1c(O)cc2oc(-c3ccccc3)cc(=O)c2c1O [Oroxylin-A, 5,7-Dihydroxy-6-methoxy-2-phenyl-chromen-4-one]
5 | 97.31 | 97.31 | COC(=O)[C@H]1O[C@@H](Oc2cc3oc(-c4ccccc4)cc(=O)c3c(O)c2OC)[C@H](O)[C@@H](O)[C@@H]1O [Oroxyloside methyl ester]

From EP1986670B1, “INTESTINAL ALPHA-GLUCOSIDASE INHIBITORS AND A PROCESS FOR THE ISOLATION AND USE THEREOF” (Council of Scientific and Industrial Research, priority 2006, dated 2007)
